Experimental data: ChEMBL document CHEMBL5528018, “Whole cell hydride Meisenheimer complex biotransformation guided optimization of antimycobacterial benzothiazinones” (Eur J Med Chem, 2024)
Values after ≈ are worked out from the molar mass of the structure shown.

Assays:
[1] = tested on: Mycobacterium tuberculosis; test: Antitubercular activity against Mycobacterium tuberculosis H37Rv by resazurin dye based microtiter plate assay; format: functional
[2] = Cytotoxicity against human HeLa cells assessed as cytolytic effect incubated for 72 hrs by methylene blue staining based colorimetric analysis; format: toxicity, cell-based
[3] = Selectivity index, ratio of CC50 for cytotoxicity against human HeLa cells to MIC for antitubercular activity against Mycobacterium tuberculosis H37Rv; format: toxicity, cell-based; details: read-out: Selectivity Index
[4] = Cmax in mouse RAW264.7 cells at 77 uM incubated for 8 hrs by UHPLC-HRMS analysis; format: ADME, cell-based
[5] = Tmax in mouse RAW264.7 cells at 77 uM incubated for 8 hrs by UHPLC-HRMS analysis; format: ADME, cell-based
[6] = Half life in mouse RAW264.7 cells at 77 uM incubated for 8 hrs by UHPLC-HRMS analysis; format: ADME, cell-based
[7] = Metabolic stability in human liver microsomes assessed as half life at 20 uM measured upto 90 mins in presence of NADP regenerating system by high-resolution mass spectrometry; format: ADME, Microsome
[8] = Metabolic stability in human liver microsomes assessed as intrinsic clearance at 20 uM measured upto 90 mins in presence of NADP regenerating system by high-resolution mass spectrometry; format: ADME, Microsome; details: read-out: CLH
[9] = Metabolic stability in human liver assessed as intrinsic clearance at 20 uM measured upto 90 mins in presence of NADP regenerating system by high-resolution mass spectrometry; format: ADME, tissue-based; details: read-out: CLH
[10] = Metabolic stability in human liver microsomes assessed as hepatic extraction ratio at 20 uM measured upto 90 mins in presence of NADP regenerating system by high-resolution mass spectrometry; format: ADME, Microsome; details: read-out: ERH
[11] = Cmax in BALB/cAnNCrl mouse at 250 mg/kg, po measured upto 24 hrs by UHPLC-HRMS analysis; format: ADME, organism-based; details: in vivo
[12] = Tmax in BALB/cAnNCrl mouse at 250 mg/kg, po measured upto 24 hrs by UHPLC-HRMS analysis; format: ADME, organism-based; details: in vivo
[13] = AUC (0 to infinity) in BALB/cAnNCrl mouse at 250 mg/kg, po measured upto 24 hrs by UHPLC-HRMS analysis; format: ADME, organism-based; details: in vivo
[14] = Apparent volume of distribution during terminal phase in BALB/cAnNCrl mouse at 250 mg/kg, po measured upto 24 hrs by UHPLC-HRMS analysis; format: ADME, organism-based; details: in vivo, read-out: Vz/F
[15] = Half life in BALB/cAnNCrl mouse at 250 mg/kg, po measured upto 24 hrs by UHPLC-HRMS analysis; format: ADME, organism-based; details: in vivo
[16] = Apparent oral clearance in BALB/cAnNCrl mouse at 250 mg/kg measured upto 24 hrs by UHPLC-HRMS analysis; format: ADME, organism-based; details: in vivo
[17] = tested on: Mycobacterium tuberculosis; test: Antitubercular activity against Mycobacterium tuberculosis H37Rv infected in BALB/c mouse assessed as reduction of colony forming unit in lung administered once daily for 6 weeks by agar dilution method; format: functional, organism-based; details: dose 25-250 mg/kg/day, route po
[18] = tested on: Mycobacterium tuberculosis; test: Antitubercular activity against Mycobacterium tuberculosis H37Rv infected in BALB/c mouse assessed as reduction of colony forming unit in spleen administered once daily for 6 weeks by agar dilution method; format: functional, organism-based; details: dose 25-250 mg/kg/day, route po
[19] = Toxicity in BALB/c mouse infected with Mycobacterium tuberculosis H37Rv assessed as drug tolerance at 25 to 250 mg/kg/day, po qd administered for 6 weeks; format: organism-based; details: in vivo, 1008 h, dose 25-250 mg/kg/day
[20] = Drug metabolism in BALB/c cAnNCrl mouse assessed as HMC metabolite formation at 250 mg/kg, po measured upto 24 hrs by UHPLC-HRMS analysis; format: ADME, organism-based; details: in vivo
[21] = Stability in mouse RAW264.7 cells assessed as parent compound remaining at 77 uM after 8 hrs by UHPLC-HRMS analysis; format: ADME, cell-based; details: read-out: Stability
[22] = Drug metabolism in cattle assessed as hydride meisenheimer complex formation by UHPLC-HRMS analysis; format: ADME, Bos taurus
[23] = Drug metabolism in rat assessed as hydride meisenheimer complex formation by UHPLC-HRMS analysis; format: ADME
[24] = Drug metabolism in sheep assessed as hydride meisenheimer complex formation by UHPLC-HRMS analysis; format: ADME, Ovis aries
[25] = Drug metabolism in goat assessed as hydride meisenheimer complex formation by UHPLC-HRMS analysis; format: ADME, Capra hircus
[26] = Drug metabolism in CD1 mouse heart assessed as hydride meisenheimer complex formation by UHPLC-HRMS analysis; format: ADME, tissue-based
[27] = Drug metabolism in CD1 mouse brain assessed as hydride meisenheimer complex formation by UHPLC-HRMS analysis; format: ADME, tissue-based
[28] = Drug metabolism in CD1 mouse liver assessed as hydride meisenheimer complex formation by UHPLC-HRMS analysis; format: ADME, tissue-based
[29] = Drug metabolism in CD1 mouse lung assessed as hydride meisenheimer complex formation by UHPLC-HRMS analysis; format: ADME, tissue-based
[30] = Drug metabolism in CD1 mouse spleen assessed as hydride meisenheimer complex formation by UHPLC-HRMS analysis; format: ADME, tissue-based
[31] = Drug metabolism in CD1 mouse muscle assessed as hydride meisenheimer complex formation by UHPLC-HRMS analysis; format: ADME, tissue-based, Muscle tissue
[32] = Drug metabolism in CD1 mouse kidney assessed as hydride meisenheimer complex formation by UHPLC-HRMS analysis; format: ADME, tissue-based
[33] = Drug metabolism in CD1 mouse blood assessed as hydride meisenheimer complex formation by UHPLC-HRMS analysis; format: ADME, tissue-based

Row | Structure (SMILES) | MIC [1] [µM] | CC50 at 72 h [2] [µM] | selectivity ratio [3] | half-life at 20 µM [7] [h] | microsomal CLint at 20 µM [8] [µL/min/mg] | CLint scaled at 20 µM [9] [mL/min/kg] | hepatic extraction ratio at 1.5 h, 20 µM [10] | further results
1 | Cc1c(C(F)(F)F)cc2c(=O)nc(N3CCN(CC4CCCCC4)CC3)sc2c1[N+](=O)[O-] | 0.797 (≈ 0.375 µg/mL) | 64 | 80 |  |  |  |  | 
2 | O=c1nc(N2CCC(Oc3ccc(OC(F)(F)F)cc3)CC2)sc2c([N+](=O)[O-])cc(C(F)(F)F)cc12 | 0.0056 (≈ 0.003 µg/mL) | > 93 | 16700 |  |  |  |  | 
3 | Cc1c(C(F)(F)F)c(C)c2c(=O)nc(N3CCC4(CC3)OC[C@H](C)O4)sc2c1[N+](=O)[O-] | 4.35 (≈ 2 µg/mL) | 93 | 21 |  |  |  |  | 
4 | C[C@H]1COC2(CCN(c3nc(=O)c4cc(C(F)(F)F)cc(N)c4s3)CC2)O1 |  |  |  |  |  |  |  | Cmax at 77 µM [4]: 2000 ng/mL; Tmax at 77 µM [5]: 8 h; half-life at 77 µM [6]: 13 h
5 | C#Cc1c(C(F)(F)F)cc([N+](=O)[O-])c2sc(N3CCC4(CC3)OC[C@H](C)O4)nc(=O)c12 | > 8.78 | 9 | 1 |  |  |  |  | 
6 | Cc1c(C(F)(F)F)cc([N+](=O)[O-])c2sc(N3CCC(Oc4ccc(OC(F)(F)F)cc4)CC3)nc(=O)c12 | 0.91 (≈ 0.5 µg/mL) | > 91 | 100 | 0.572 | 40.8 | 47.1 | 0.702 | 
7 | Cc1c(C(F)(F)F)cc2c(=O)nc(N3CCC(Oc4ccc(OC(F)(F)F)cc4)CC3)sc2c1[N+](=O)[O-] | 3.64 (≈ 2 µg/mL) | > 91 | 25 | 1.13 | 20.6 | 23.8 | 0.543 | 
8 | Cc1c(C(F)(F)F)cc([N+](=O)[O-])c2sc(N3CCC4(CC3)OC[C@H](C)O4)nc(=O)c12 | 0.053 (≈ 0.0236 µg/mL) | > 110 | 8330 | 1.7 | 13.7 | 15.9 | 0.443 | Cmax at 77 µM [4]: 504 ng/mL; Tmax at 77 µM [5]: 0.17 h; half-life at 77 µM [6]: 20.2 h; Cmax [11]: 2410 ng/mL; Tmax [12]: 0.5 h; AUC [13]: 15600 ng·h/mL; Vd/F [14]: 108 L/kg; half-life [15]: 4.6 h; CL/F [16]: 267 mL/min/kg; Activity [17]: Dose-Dependent Effect; Activity [18]: Dose-Dependent Effect; Activity [19]: Non-Toxic; Drug metabolism [20]: Metabolite_Notdetected; remaining at 8 h, 77 µM [21]: 76.6%
9 | Cc1c(C(F)(F)F)cc([N+](=O)[O-])c2sc(N3CCN(CC4CCCCC4)CC3)nc(=O)c12 | 0.056 (≈ 0.0263 µg/mL) | 53 | 50000 | 0.692 | 33.7 | 39 | 0.661 | 
10 | Cc1c(C(F)(F)F)cc([N+](=O)[O-])c2sc(N3CCN(S(=O)(=O)c4ccc(OC(F)(F)F)cc4)CC3)nc(=O)c12 | > 6.68 | > 84 | 13 |  |  |  |  | 
11 | Cc1c(C(F)(F)F)cc2c(=O)nc(N3CCC4(CC3)OC[C@H](C)O4)sc2c1[N+](=O)[O-] | 0.842 (≈ 0.375 µg/mL) | 87 | 104 | 2.75 | 8.5 | 9.8 | 0.329 | 
12 | O=c1nc(N2CCN(S(=O)(=O)c3ccc(OC(F)(F)F)cc3)CC2)sc2c([N+](=O)[O-])cc(C(F)(F)F)cc12 | 0.108 (≈ 0.0631 µg/mL) | 43 | 397 |  |  |  |  | 
13 | Cc1c(C(F)(F)F)cc2c(=O)nc(N3CCN(S(=O)(=O)c4ccc(OC(F)(F)F)cc4)CC3)sc2c1[N+](=O)[O-] | > 6.68 | > 84 | 13 |  |  |  |  | 
14 | C[C@H]1COC2(CCN(c3nc(=O)c4cc(C(F)(F)F)cc([N+](=O)[O-])c4s3)CC2)O1 [BTZ-043] | 0.00348 (≈ 0.0015 µg/mL) | > 120 | 33300 |  |  |  |  | Cmax at 77 µM [4]: 3950 ng/mL; Tmax at 77 µM [5]: 0 h; half-life at 77 µM [6]: 2.3 h; Drug metabolism [22]: Metabolite_Detected; Drug metabolism [23]: Metabolite_Detected; Drug metabolism [24]: Metabolite_Detected; Drug metabolism [25]: Metabolite_Detected; Drug metabolism [26]: Metabolite_Detected; Drug metabolism [27]: Metabolite_Detected; Drug metabolism [28]: Metabolite_Detected; Drug metabolism [29]: Metabolite_Detected; Drug metabolism [30]: Metabolite_Detected; Drug metabolism [31]: Metabolite_Detected; Drug metabolism [32]: Metabolite_Detected; Drug metabolism [33]: Metabolite_Detected
15 | O=c1nc(N2CCN(CC3CCCCC3)CC2)sc2c([N+](=O)[O-])cc(C(F)(F)F)cc12 [MACOZINONE] | 0.0011 (≈ 0.000502 µg/mL) | > 110 | 100000 |  |  |  |  | 
